Non-standard residues stand in square brackets, D forms with d. Residues, ends and D or L forms follow the SMILES beside them.
Tests used:
Aβ(1–42) = target: T1, Aβ(1–42) (Homo sapiens, UniProt P05067); experiment: Thioflavin T (ThT) fibril formation assay; format: biochemical; settings: pH 7.4, 20 μM Aβ(1–42), 20 μM peptide (method: 31 μg/ml), 20 μM ThT, 10 mM sodium phosphate pH 7.4, 37°C, compared after 5 h with Aβ(1–42)-only control; read-out: inhibition of Aβ(1–42) fibril formation (ThT fluorescence)
T1 construct: Aβ(1–42), N-terminally biotinylated Aβ(1–42) and FITC-Aβ(1–42) were purchased from Bachem; purchased Bachem (Heidelberg, Germany)
T1 sequence (P05067 672-713 limits assumed): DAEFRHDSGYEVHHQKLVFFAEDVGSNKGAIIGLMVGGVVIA
Procedure: 20 μM Aβ(1–42) was mixed with 20 μM Thioflavin T (ThT) and 31 μg/ml DB3 or DB3DB3 in 10 mM sodium phosphate buffer, pH 7.4. The assay was performed using a non-binding 96 well plate (Greiner Bio-One, Frickenhausen, Germany). ThT fluorescence was measured every 15 min at λex = 440 nm and λem = 490 nm in a temperature-controlled plate reader (Polarstar Optima, BMG, Offenburg, Germany) at 37°C with 1 min agitation before every measurement. Each value was background corrected using the ThT fluorescence of a peptide solution without Aβ(1–42). To investigate the influence of DB1 to DB5 on Aβ fibril formation, a Thioflavin T (ThT) assay was performed. In an aqueous environment the benzothiazole dye has a low fluorescence. […] The emission at 490 nm is directly proportional to the quantity of amyloid fibrils. Fibril formation of Aβ can be followed in real time by measuring the ThT fluorescence. Therefore, the inhibitory effects of the D-peptides DB1 to DB5 and D3 were investigated by co-incubating these peptides with Aβ(1–42) and performing the ThT assay. Fluorescence emission data were compared after 5 h incubation, because after this period the Aβ(1–42) control (without added peptide) reached its fluorescence maximum. […] 20 μM Aβ(1–42) was mixed with 20 μM DB1 to DB5 or 10 μM DB3DB3 and the ThT fluorescence was monitored. Aβ(1–42) without peptide addition was taken as the control. The ThT fluorescence of all samples were compared after 5 h, where the control, Aβ(1–42) only, reached its maximum in fluorescence emission. The Mann-Whitney-U-test was used for statistical analysis. * p < 0.05; ** p < 0.01; *** p < 0.001.

Aβ(1–42) monomers = target: T2, Aβ(1–42) monomers (Homo sapiens, UniProt P05067); experiment: Biolayer interferometry (BLI) KD determination; format: binding; settings: N-terminally biotinylated Aβ(1–42) immobilised on streptavidin biosensors, 20 mM sodium phosphate pH 7.4, steady state, Langmuir 1:1 model, mean ± SD of triplicate
T2 construct: N-terminally biotinylated Aβ(1–42) monomers were immobilized on streptavidin biosensors; purchased Bachem (Heidelberg, Germany)
T2 sequence (P05067 672-713 limits assumed): as above
Procedure: BLI experiments were performed using an Octet RED96 instrument (fortéBIO, PALL Life Science, Menlo Park, USA). N-terminally biotinylated Aβ(1–42) was dissolved in HFIP, lyophilized and dissolved in 2 mM aqueous sodium hydroxide (1 mg/ml) in order to destroy any pre-existing aggregates. The Aβ(1–42) solution was neutralized by dilution in running buffer (20 mM sodium phosphate buffer, pH 7.4) to a final concentration of 20 μg/ml and directly immobilized on Super Streptavidin biosensors (SSA) (fortéBIO, PALL Life Science, Menlo Park, USA) to a final depth of 3 nm. Ligand biosensors and reference biosensors were quenched with 20 μg/ml biotin for 7 min.
For KD determinations, the binding of a dilution series of DB3 (200, 100, 50, 25, 12.5, 6.25, 3.125 μM) or DBDB3 (20, 10, 5, 2.5, 1.25, 0.625, 0.3125 μM) was detected in parallel to the ligand biosensors and reference biosensors. A separate buffer cycle was used for double referencing. […]
Fig 4 KD determination of DB3 and DB3DB3 to monomeric Aβ using biolayer interferometry (BLI). N-terminally biotinylated Aβ(1–42) monomers were immobilized on streptavidin biosensors and the binding of DB3 and DB3DB3 was detected. Representative double referenced sensorgrams of a dilution series of DB3 (A) and DB3DB3 (B) are shown, including the equilibrium dissociation constants (KD) as means ± SD of data recorded in triplicate. […]

PC12 cells = experiment: MTT cell viability assay; format: cell-based, rat; settings: 5 μM peptide without Aβ, 24 h
Procedure: Rat pheochromocytoma PC12 cells (Leibniz Institute DSMZ, Braunschweig, Germany) were cultivated in DMEM medium supplemented with 10% fetal bovine serum and 5% horse serum. 10,000 cells per well were seeded on collagen-coated 96 well plates (Gibco, Life technology, Carlsberg, USA) and incubated in a 95% humidified atmosphere with 5% CO2 at 37°C for 24 h. […] DB peptide was then added at different concentrations and incubated for further 40 min at 21°C and 600 rpm agitation before addition to the PC12 cells. […] Cell viability was then measured using the Cell proliferation Kit I (MTT) (Roche, Basel, Switzerland) according to the manufacturer’s instruction. The absorbance of the formazan product was determined by measuring at 570 nm after subtracting the absorption at 660 nm. For absorption measurements, a Polarstar Optima plate reader (BMG, Offenburg, Germany) was used. All results were normalized to cells that were treated with buffer only.
The cell viability assay was performed using PC12 cells in a MTT test. […] The absorption of buffer treated cells was set to 100% cell viability. […] The Mann-Whitney-U-test was used for statistical analysis. * p < 0.05; ** p < 0.01; *** p < 0.001.

inhibition at 31 µg/mL (Aβ(1–42)): 80%
Kd (Aβ(1–42) monomers): 74.7 µM
Structure (SMILES): CC[C@@H](C)[C@@H](NC(=O)[C@H]1CCCN1C(=O)[C@H](N)CCCNC(=N)N)C(=O)N[C@@H](C(=O)N[C@H](CCCNC(=N)N)C(=O)N[C@H](CC(C)C)C(=O)N[C@H](CCCNC(=N)N)C(=O)N[C@@H](C(=O)N[C@H](Cc1c[nH]cn1)C(=O)N[C@H](CCC(N)=O)C(=O)N[C@H](CC(N)=O)C(=O)N[C@H](CCCNC(=N)N)C(N)=O)[C@H](C)O)[C@H](C)O [DB3] (H-[dR][dP][dI][dT][dR][dL][dR][dT][dH][dQ][dN][dR]-NH2)
effect of peptide alone on PC12 cell viability (PC12 cells): not toxic
